Assay results as given in US20200297711A1, “PHARMACEUTICAL COMPOSITION COMPRISING FGFR SELECTIVE TYROSINE KINASE INHIBITOR” (priority 2017, published 2020).
Marks after values point to notes of the source that are not given here.

Experiment: Pharmacokinetics in plasma following single dose and repeated doses of Compound A 1.5 succinate
Assay type: in vivo, human
Details: Compound B
Experimental: In order to evaluate the PK when administered as a single dose, a single dose of Compound A for each treatment group (at the corresponding dosage for that group) was administered on Day 1. Compound A was administered when fasted, immediately after waking up with at least 10 hours fasting. Taking any meal was prohibited for 2 hours after administration and only drinking water was allowed.
Cycle 1 was started between 8 and 10 days after dosing in Cycle 0 and Compound A was administered continuously once daily. Compound A was administered at least 2 hours after breakfast, and any food intake was prohibited for 1 hour after administration. However, on Day 8 of Cycle 1, Compound A was administered immediately after waking up while the subject was fasted after at least 10 hours of overnight fasting in order to evaluate the PK. Taking any meals was prohibited for 2 hours after administration and only drinking water was allowed.
Plasma concentration profile of Compound A following a single dose and repeated doses of Compound A 1.5 succinate are shown in FIG. 1 and FIG. 2, respectively. The profile shown in FIG. 2 is that at steady state.
The pharmacokinetic parameters of Compound A following the single dose and repeated doses of Compound A 1.5 succinate are shown in the following table. The pharmacokinetic parameters of Compound A following repeated doses of Compound A 1.5 succinate shown below are those at steady state.
The pharmacokinetic parameters of Compound A following the single dose and repeated doses of Compound A 1.5 succinate updated after obtaining the above data are shown in the following table. The pharmacokinetic parameters of Compound A following repeated doses of Compound A 1.5 succinate shown below are those at steady state.
The pharmacokinetic parameters of Compound B following the single dose and repeated doses of Compound A 1.5 succinate are shown in the following table. The pharmacokinetic parameters of Compound B following repeated doses of Compound A 1.5 succinate shown below are those at steady state.

[1] = repeated once-daily doses of Compound A 30 mg, steady state (n = 2)
[2] = repeated once-daily doses of Compound A 60 mg, steady state (n = 2)
[3] = repeated once-daily doses of Compound A 100 mg, steady state (n = 3)
[4] = repeated once-daily doses of Compound A 140 mg, steady state (n = 3)
[5] = repeated once-daily doses of Compound A 180 mg, steady state (n = 3)
[6] = single dose of Compound A 30 mg (n = 2)
[7] = single dose of Compound A 60 mg (n = 3)
[8] = single dose of Compound A 100 mg (n = 3)
[9] = single dose of Compound A 140 mg (n = 3)
[10] = single dose of Compound A 180 mg (n = 3)

SMILES: CNC(=O)n1ccc2cc(Oc3ccnc(NC(=O)c4ccc(C5CCNCC5)cc4)c3)c(OCCOC)cc21 [Compound B, 6-(2-Methoxyethoxy)-N-methyl-5-((2-(4-(piperidin-4-yl)benzamide)pyridin-4-yl)oxy)-1H-indole-1-carboxamide]
- AUC(0-t) [1]: 194 ng·h/mL
- Cavg [1]: 7.71 ng/mL
- Cmax [1]: 12.4 ng/mL
- Cmin [1]: 5.19 ng/mL
- tmax, median (minimum − maximum) [1]: 3.49 (1.97-5.00) h
- AUC(0-t) [2]: 565 ^a^ h* ng/mL
- Cavg [2]: 22.6 ^a ng/mL
- Cmax [2]: 44.2 ^a ng/mL
- Cmin [2]: 12.3 ^a ng/mL
- tmax, median (minimum − maximum) [2]: 2.54 (2.07-3.00) ^a h
- AUC(0-t) [3]: 805 ± 195 ng·h/mL
- Cavg [3]: 32.3 ± 7.79 ng/mL
- Cmax [3]: 55.4 ± 14.5 ng/mL
- Cmin [3]: 17.4 ± 7.37 ng/mL
- tmax, median (minimum − maximum) [3]: 5.00 (4.98-5.05) h
- AUC(0-t) [4]: 1620 ± 460 ng·h/mL
- Cavg [4]: 66.1 ± 18.8 ng/mL
- Cmax [4]: 106 ± 51.8 ng/mL
- Cmin [4]: 41.5 ± 10.9 ng/mL
- tmax, median (minimum − maximum) [4]: 5.00 (2.98-5.08) h
- AUC(0-t) [5]: 1500 ± 686 ng·h/mL
- Cavg [5]: 60.4 ± 27.7 ng/mL
- Cmax [5]: 98.0 ± 39.5 ng/mL
- Cmin [5]: 32.8 ± 13.0 ng/mL
- tmax, median (minimum − maximum) [5]: 5.00 (3.05-5.08) h
- AUC(0-inf) [6]: 297 ng·h/mL
- AUC(0-t) [6]: 274 ng·h/mL
- Cmax [6]: 19.2 ng/mL
- t1/2 [6]: 21.5 h
- tmax, median (minimum − maximum) [6]: 3.59 (2.02-5.15) h
- AUC(0-inf) [7]: 687 ± 354 ng·h/mL
- AUC(0-t) [7]: 652 ± 352 ng·h/mL
- Cmax [7]: 35.1 ± 19.1 ng/mL
- t1/2 [7]: 26.1 ± 10.2 h
- tmax, median (minimum − maximum) [7]: 4.98 (3.00-5.07) h
- AUC(0-inf) [8]: 699 ± 163 ng·h/mL
- AUC(0-t) [8]: 647 ± 153 ng·h/mL
- Cmax [8]: 38.4 ± 4.36 ng/mL
- t1/2 [8]: 20.0 ± 0.794 h
- tmax, median (minimum − maximum) [8]: 4.95 (2.97-5.10) h
- AUC(0-inf) [9]: 1410 ± 216 ng·h/mL
- AUC(0-t) [9]: 1350 ± 233 ng·h/mL
- Cmax [9]: 63.8 ± 36.1 ng/mL
- t1/2 [9]: 40.50 ± 6.46 h
- tmax, median (minimum − maximum) [9]: 5.00 (4.88-5.08) h
- AUC(0-inf) [10]: 1370 ± 703 ng·h/mL
- AUC(0-t) [10]: 1320 ± 693 ng·h/mL
- Cmax [10]: 50.7 ± 20.7 ng/mL
- t1/2 [10]: 39.9 ± 6.27 h
- tmax, median (minimum − maximum) [10]: 5.00 (3.00-5.02) h
